Three compounds from US12077786B2, “Methods of cell selection and modifying cell metabolism” (LONZA LTD, priority 2018, dated 2024) can be followed below.

The subject of experiment [1] is cell pools constructed using the P5CS/eGFP vector (GSKO cells). Kind of experiment: P5CS/eGFP cell pools grown without proline with P5CS inhibitor, 96 deep well plates. It is filed as cell-based, Chinese hamster. To be noted: with increase in inhibitor concentration; media lacking proline; 24-216 hours. The protocol: FIGS. 8A-8F are a series of diagrams showing cell pools generated using P5CS overexpression and cultured in the absence of proline, and in the presence of L-azetidine-2-carboxylic acid, a P5CS inhibitor. L-azetidine-2-carboxylic acid was added at a variety of different concentrations and cells were cultured in 96 deep well plates for 9 days. These cells were analyzed for cell growth, as measured by viable cell concentration (FIG. 8A) and culture viability (FIG. 8B). Cells were also analyzed for mean culture fluorescence (FIG. 8C) and percentage of cells exceeding the predetermined thresholds of 10^2 (FIG. 8D) and 10^3 (FIG. 8E).
FIGS. 9A-9F are a series of diagrams showing cell pools generated using P5CS overexpression and cultured in the absence of proline, and in the presence of 3,4-dehydro-L-proline, a P5CS inhibitor. 3,4-dehydro-L-proline was added at a variety of different concentrations and cells were cultured in 96 deep well plates for 9 days. These cells were analyzed for cell growth, as measured by viable cell concentration (FIG. 9A) and culture viability (FIG. 9B). Cells were also analyzed for mean culture fluorescence (FIG. 9C) and percentage of cells exceeding the predetermined thresholds of 10^2 (FIG. 9D) and 10^3 (FIG. 9E).
FIGS. 10A-10F are a series of diagrams showing cell pools generated using P5CS overexpression and cultured in the absence of proline, and in the presence of L-4-thiazolidinecarboxylic acid, a P5CS inhibitor. L-4-thiazolidinecarboxylic acid was added at a variety of different concentrations and cells were cultured in 96 deep well plates for 9 days. These cells were analyzed for cell growth, as measured by viable cell concentration (FIG. 10A) and culture viability (FIG. 10B). Cells were also analyzed for mean culture fluorescence (FIG. 10C) and percentage of cells exceeding the predetermined thresholds of 10^2 (FIG. 10D) and 10^3 (FIG. 10E).
In order to assess the capacity of the proline/P5CS system to generate recombinant cell pools, vectors comprising the P5CS gene and a gene of interest were transfected into cells and subsequently cultured in the absence of proline in an attempt to generate recombinant cell pools. Briefly, 1×10^7 Lonza's GSKO cells were electroporated with 20 μg plasmid which was first linearized using PvuI restriction enzyme (NEB) and purified using sodium acetate and ethanol precipitation. The construct used contained both the P5CS gene for evaluation as a selection marker and eGFP as a reporter gene. Transfections were carried out in CM76 medium in the absence of proline but supplemented with L-glutamine to achieve a final concentration of 6 mM. The cells were then cultured in 25 ml of this medium in a T75 flask for 10 days before being transferred to 10 ml suspension culture, also in proline absent medium. The resulting pool was analyzed using flow cytometry. Cell samples were first centrifuged at 1,000 rpm for 5 minutes and resuspended in 500 μl PBS. Samples were then loaded onto the probe of a FACScalibur™ (BD biosciences) and fluorescence intensity was measured in relation to the cell count. The forward scatter (FSC) was measure using the E-1 amplifier and side scatter (SSC) set to 465 whilst FL1 recorded cells at 473; all settings were converted to Log scales. In order to facilitate the adherence of suspension cells, coverslips were first submerged in poly-L-lysine and incubated for 15 minutes at room temperature. Coverslips were then removed and left to dry in a sterile environment before transferring to a 24 well plate. Cells were cultured at 37° C. overnight to facilitate adhering of cells to the coverslip before aspirating the medium and adding 250 μl of 4% paraformaldehyde in PBS and incubating for 20 minutes at 37° C. to fix cells. Subsequently two 1 ml PBS washes were carried out before 250 μl 0.1% triton X100 in PBS was added and incubated for 5 minutes at room temperature to permeablize cells. […]

The test system is the same in experiment [2]. Kind of experiment: P5CS/eGFP cell pools grown without proline with P5CS inhibitor, static 24 well plates. It is filed as cell-based, Chinese hamster. To be noted: with increase in inhibitor concentration; media lacking proline; 24-216 hours. Here is the method:
FIGS. 11A-11E are a series of diagrams showing analysis of cell pools generated using P5CS overexpression and cultured in the absence of proline, and in the presence of L-azetidine-2-carboxylic acid, a P5CS inhibitor. L-azetidine-2-carboxylic acid was added at a variety of different concentrations and cells were cultured in static 24 well plates for 9 days. These cells were analyzed for cell growth, as measured by viable cell concentration (FIG. 11A) and culture viability (FIG. 11B). Cells were also analyzed for mean culture fluorescence (FIG. 11C) and percentage of cells exceeding the predetermined thresholds of 10^2 (FIG. 11D) and 10^3 (FIG. 11E).
FIGS. 12A-12E are a series of diagrams showing analysis of cell pools generated using P5CS overexpression and cultured in the absence of proline, and in the presence of 3,4-dehydro-L-proline, a P5CS inhibitor. 3,4-dehydro-L-proline was added at a variety of different concentrations and cells were cultured in static 24 well plates for 9 days. These cells were analyzed for cell growth, as measured by viable cell concentration (FIG. 12A) and culture viability (FIG. 12B). Cells were also analyzed for mean culture fluorescence (FIG. 12C) and percentage of cells exceeding the predetermined thresholds of 10^2 (FIG. 12D) and 10^3 (FIG. 12E). […]

With `O=C(O)[C@@H]1C=CCN1` [3,4-dehydro-L-proline], in experiment [1], the “cell growth (viable cell number)” value is given as “slower cell growth” and the “mean fluorescence (eGFP)” value was “higher mean fluorescence”.
For the compound `O=C(O)[C@@H]1CSCN1` [L-4-thiazolidinecarboxylic acid], in experiment [1], the “cell growth (viable cell number)” value is given as “slower cell growth” and the “mean fluorescence (eGFP)” value was “higher mean fluorescence”.
Regarding `O=C(O)[C@@H]1CCN1` [L-azetidine-2-carboxylic acid], in experiment [1], the “cell growth (viable cell number)” value is listed as “slower cell growth” and the “mean fluorescence (eGFP)” value is listed as “higher mean fluorescence”. In experiment [2], the “cell growth (viable cell number)” value was “slower cell growth” and the “mean fluorescence (eGFP)” value was “higher mean fluorescence”.
